Laboratory results reported in patent US20260167629A1, “NOVEL INDAZOLE DERIVATIVE OR PHARMACEUTICALLY ACCEPTABLE SALT THEREOF, AND USE THEREOF” (KOREA UNIVERSITY RESEARCH AND BUSINESS FOUNDATION, priority 2022, published 2026).

Tests used:
Format in all cases: cell-based
MDA-MB-231 cell line = test: MTS cell viability assay in MDA-MB-231 cell line; conditions: Homo sapiens, MDA-MB-231, 72 hours
Protocol: A HER2 positive breast cancer (HER2+BC) cell line, JIMT-1 (cell seeding numbers: 1.0 (JIMT)×10^4 cells/wells (confluency≤30%)) and a triple-negative breast cancer (TNBC) cell line, MDA-MB-231 (cell seeding numbers: 1.0 (M231)×10^4 cells/wells (confluency≤30%) were used in the experiment.
The above cell lines were cultured in Dulbecco's Modified Eagle's Medium (DMEM) or Eagle's minimum Essential Medium (MEM) each containing 10% fetal bovine serum (FBS), streptomycin-penicillin (100 U/ml), and Fungizone (0.625 μg/ml), respectively under 5% CO2, 37° C. environment.
The JIMT-1 cell line and MDA-MB-231 cell line were treated with the indazole derivatives (formulas 1-1 to 1-53) of the present disclosure at a concentration of 10 μM each for 72 hours, and then cell viability was measured using the MTS assay technique. The control group was treated with DMSO as an untreated group (0 μM) of the indazole derivative of the present disclosure.
Specifically, cells were attached to 96 well plates for 24 hours, and then treated with the indazole derivatives for 72 hours. Thereafter, the cells were chromogenized with MTS for 4 hours, and the absorbance was measured at 490 nm using a Spectramax Plus384 microplate analyzer. The significance between the control group and the experimental group was verified using an unpaired Students t-test (*p<0.01; DMSO control vs indazole series).
HER2-positive breast cancer cell lines, BT474 (cell seeding numbers: 2.0 (JIMT)×10^4 cells/wells (confluency≤30%)) sensitive to trastuzumab, and JIMT-1 (cell seeding numbers: 1.0 (JIMT)×10^4 cells/wells (confluency≤30%)) resistant to trastuzumab, and a triple-negative breast cancer cell line, MDA-MB-231 (cell seeding numbers: 1.0 (M231)×10^4 cells/wells (confluency≤30%)) were used.
The BT474, JIMT-1, and MDA-MB-231 cell lines were treated with compound 18c (formula 1-16) and compound 11k (formula 1-7) at concentrations of 0 (DMSO), 0.1, 0.5, 1, 5, 10, and 20 μM, respectively, for 72 hours, and then cell viability was measured using the MTS assay technique as explained by the description of Experimental Example 1. The cell viability experiment was performed independently three times, and the significance was verified by a One-Way Anova, Bonferroni post-hoc test (*p<0.01; DMSO control vs. compound 18c or compound 11k).
In addition, the JIMT-1 and MDA-MB-231 cell lines were treated with compound 11m (formula 1-9), 11n (formula 1-10) and compound 12k (formula 1-13) at concentrations of 0 (DMSO), 0.1, 1, 5, 10, and 20 μM, respectively, for 72 hours, and then cell viability was measured.
Meanwhile, triple-negative breast cancer cell lines MDA-MB-231 and BT549, and a mouse breast cancer cell line 4T1 were treated with compound 38 (formula 1-30) at concentrations of 0 (DMSO), 0.1, 0.5, 1, 2, 5, 10, and 20 μM for 72 hours, and then cell viability was measured.
The indazole derivative of the present disclosure was compared with the benzopyran derivative of the related art (KR 10-2304532) in terms of cell viability of the BT474, JIMT-1, and MDA-MB-231 cell lines (Table 1). In this case, the cell lines were treated with the benzopyran derivative at a concentration of 10 μM for 72 hours and the cell lines were treated with the indazole derivative at a concentration of 10 μM for 72 hours, and then the cell viability was measured.

BT474 cell line = test: MTS cell viability assay in BT474 cell line; conditions: Homo sapiens, BT-474, BT474, 72 hours
Protocol: Specifically, cells were attached to 96 well plates for 24 hours, and then treated with the indazole derivatives for 72 hours. Thereafter, the cells were chromogenized with MTS for 4 hours, and the absorbance was measured at 490 nm using a Spectramax Plus384 microplate analyzer.
HER2 positive breast cancer (HER2+BC) cell lines, BT474 (cell seeding numbers: 2.4 (BT474)×10^4 cells/wells (confluency≥50%)) sensitive to trastuzumab and JIMT-1 (cell seeding numbers: 1.0 (JIMT-1)×10^4 cells/wells (confluency>30%)) resistant to trastuzumab were used in the experiment.
In this case, the cell lines were treated with the benzopyran derivative at a concentration of 10 μM for 72 hours and the cell lines were treated with the indazole derivative at a concentration of 10 μM for 72 hours, and then the cell viability was measured.

[1] = system: cleaved caspase-3, cleaved caspase-7, PARP in BT474 cell line; test: Western blotting of apoptosis-related proteins, BT474; conditions: BT474, 10 μM, 72 hours; for amounts of cleaved caspase-3 and cleaved caspase-7: compared to the control group
Protocol: To investigate the mechanism of cell death by compound 18c (formula 1-16) and compound 11k (formula 1-7), the activation of apoptosis-related factor caspase family members was determined through western blotting.
(§1) To perform western blotting, BT-474 and JIMT-1 cell lines were treated with control (DMSO), compound 18c, and compound 11k at concentrations of 10 μM each for 72 hours, and then lysed in lysis buffer (30 mM NaCl, 0.5% Triton X-100, 50 mM Tris-HCl; pH 7.4) containing phosphatase and protease inhibitors. The proteins present in the supernatant were harvested. The protein concentration was measured using a Bradford protein assay kit, and 30 μg of protein was taken equally from each experimental group. These proteins were electrophoresed on SDS-Polyacrylamide gels (8-15%), and electrically transferred to a nitrocellulose membrane. The membrane was reacted with primary antibodies [pro PARP (1:1000), cleaved PARP (1:2000), cleaved caspase-3 (1:1000), cleaved caspase-7 (1:1000), β-actin (1:5000)] diluted in 5% bovine serum albumin (BSA) at 4° C. for 24 hours, followed by a secondary antibody, horseradish peroxidase (HRP)-conjugated rabbit IgG (1:3000) for 2 hours at room temperature. The signal intensity of the above proteins was checked by color development using an Enhanced Chemiluminescence Kit and x-ray film.

[2] = system: Hsp90 clients in JIMT-1 cell line; test: Western blotting of Hsp90 clients, JIMT-1; conditions: JIMT-1, 10 μM, 72 hours
Protocol: as §1
Western blotting was used to investigate whether Hsp90 inhibitors, compound 18c (formula 1-16) and compound 11k (formula 1-7), could downregulate the expression and activity (phosphorylation) of HER2 and HER3, which are representative clients of Hsp90, in BT474 and JIMT-1 cell lines. The expression of Akt, MEK, ERK, Bcl-2, Cyclin D1, and Survivin, which are key factors for cell survival as Hsp90 clients, was also investigated. The western blotting was performed by the method that was used in Experimental Example 2.3.
The BT474 and JIMT-1 cell lines were treated with compound 18c and compound 11k at a concentration of 10 μM for 72 hours.

Structure (SMILES) | IC50 (MDA-MB-231 cell line) | IC50 (BT474 cell line) | cleaved-PARP (89 kDa) [1] | amounts of cleaved caspase-3 and cleaved caspase-7 [1] | expression of HER2 and HER3 [2] | expression of activated forms phospho-HER2 and phospho-HER3 [2] | expression of cell proliferation factors Akt, MEK, ERK, Bcl-2, Cyclin D1, and Survivin [2]
COc1c(C(=O)Nc2ccc3c(C)nn(CCC4CCN(C)CC4)c3c2)ccc2c1C=CC(C)(C)O2 [compound 11k, 5-Methoxy-2,2-dimethyl-N-(3-methyl-1-(2-(1-methylpiperidin-4-yl)ethyl)-1H-indazol-6-yl)-2H-chromene-6-carboxamide] | 2.69 µM | 8.48 µM | increase | significantly increased | decreased | significantly reduced | inhibited the expression
COCCn1nc(NC(=O)c2ccc3c(c2OC)C=CC(C)(C)O3)c2ccccc21 [compound 18c, 5-Methoxy-N-(1-(2-methoxyethyl)-1H-indazol-3-yl)-2,2-dimethyl-2H-chromene-6-carboxamide] | 6.84 µM | 4.98 µM | increase | significantly increased | decreased | significantly reduced | inhibited the expression
